The values that follow come from article PMC2077808 (2007).

In assay [1] the test system is ATP-ASAP (DNA, aptamer, single rA at cleavage site in DNA substrate, flanked by fluorescein-dT and DABCYL-dT) CTTCGGAGGAGAACCATAGTCGGGGGAGAAGATGTGTCCGTGCTATGGTTCGA
As to the kind of experiment: fluorescence enhancement kinetics, MgZ DNAzyme cleavage sensor. The conditions noted are these: 20 mM MgCl2; 50 mM HEPES pH 7.0, 0.001% Tween-20, room temperature; highest tested 1 mM.

Assay [2] relates to ADP-ASAP (DNA:RNA, aptamer, RNA aptamer with all-DNA 30-nt antisense element; single rA in DNA substrate flanked by fluorescein-dT and DABCYL-dT) GGAGACGAGGGGTCGAACCGTAGCCCGAAGGTAGGAAGAGTGCCCCGGACAAUCAGACACGGUCUCCACTCTTCCTAGCTATGGTTCGATCAAGA
Described as above. The conditions noted are these: 20 mM MgCl2.

Assay [3] has the same test system. The assay is described as follows: initial rate of fluorescence enhancement, MgZ DNAzyme cleavage sensor. The conditions noted are these: 20 mM MgCl2, 50 mM HEPES pH 7.0, 0.001% Tween-20, room temperature, 5 nM ASAP, 1 µM MgZ.
Assay [4] has as its system ATP-ASAP (DNA, aptamer, single rA at cleavage site in DNA substrate, flanked by fluorescein-dT and DABCYL-dT) CTTCGGAGGAGAACCATAGTCGGGGGAGAAGATGTGTCCGTGCTATGGTTCGA
The assay is described as above. The conditions noted are these: 20 mM MgCl2, 50 mM HEPES pH 7.0, 0.001% Tween-20, room temperature, 5 nM ASAP, 50 nM MgZ.

[5] abbreviates: 50 mM HEPES pH 7.0, 0.001% Tween-20, room temperature, highest tested 1 mM.

On to `Nc1nc2c(ncn2[C@@H]2O[C@H](COP(=O)(O)OP(=O)(O)OP(=O)(O)O)[C@@H](O)[C@H]2O)c(=O)[nH]1`, for which the binding result in assay [1] is given as “no”.

Consider `Nc1ncnc2c1ncn2[C@@H]1O[C@H](CO)[C@@H](O)[C@H]1O`, for which the binding result in assay [2] (setting [5]) was “no”.

`Nc1ncnc2c1ncn2[C@@H]1O[C@H](COP(=O)(O)O)[C@@H](O)[C@H]1O`: the binding result in assay [2] (setting [5]) is given as “no”.

Consider `Nc1ncnc2c1ncn2[C@@H]1O[C@H](COP(=O)(O)OP(=O)(O)O)[C@@H](O)[C@H]1O`, for which, in assay [3], the “apparent K d” value came to 35 ± 3 µM.

With `Nc1ncnc2c1ncn2[C@@H]1O[C@H](COP(=O)(O)OP(=O)(O)OP(=O)(O)O)[C@@H](O)[C@H]1O`, in assay [4], the “apparent K d” value was 456 ± 47 µM. Besides, the binding result in assay [2] (50 mM HEPES pH 7.0, room temperature, no signal at 200 µM, signal at 300-1000 µM) is listed as “weak”.
